# Assay results published in US11701368B2 (EYE CO PTY LTD, priority 2018, dated 2023).
# Like-named read-outs stand apart in the source and are kept apart here.
# How the values were obtained:
# physchem = test: physchem
# Excerpt: FIG. 1: Solubility enhancement for MR compounds and TA in saline with addition of hydroxy propyl β-cyclodextrin (data are mean±sd, n=3). Top: FLU and TA; Bottom: 11-DC; DCS and DCSA.
# [1] = Stability of dry drug powders under gamma irradiation; assay type: physicochemical; conditions: 25 kGy
# Excerpt: The poor stability of most drugs under either autoclave or gamma irradiation when in contact with aqueous diluent led to a further set of stability studies to test the effect of gamma irradiation on the dry drug powders, with a view to providing the study materials as sterile powders for reconstitution immediately prior to administration.
# [2] = Stability of drug aqueous solutions under autoclave conditions; assay type: physicochemical; conditions: saturated solution, 121° C./30 min
# Excerpt: Preferably, the study materials are sterile, at least to a large degree for preclinical studies. In the absence of a facility for complete aseptic manufacture, in order to sterilize the suspensions there are two possible approaches foreseen—autoclaving the final suspensions in ‘vial’, or gamma sterilization.
# [3] = molecular target: T1, mineralocorticoid receptor (Homo sapiens, UniProt P08235); test: Mineralocorticoid receptor activity (MR potency) of corticosterones; conditions: relative potency, hydrocortisone (cortisol) = 1
# T1 sequence (P08235 1-984): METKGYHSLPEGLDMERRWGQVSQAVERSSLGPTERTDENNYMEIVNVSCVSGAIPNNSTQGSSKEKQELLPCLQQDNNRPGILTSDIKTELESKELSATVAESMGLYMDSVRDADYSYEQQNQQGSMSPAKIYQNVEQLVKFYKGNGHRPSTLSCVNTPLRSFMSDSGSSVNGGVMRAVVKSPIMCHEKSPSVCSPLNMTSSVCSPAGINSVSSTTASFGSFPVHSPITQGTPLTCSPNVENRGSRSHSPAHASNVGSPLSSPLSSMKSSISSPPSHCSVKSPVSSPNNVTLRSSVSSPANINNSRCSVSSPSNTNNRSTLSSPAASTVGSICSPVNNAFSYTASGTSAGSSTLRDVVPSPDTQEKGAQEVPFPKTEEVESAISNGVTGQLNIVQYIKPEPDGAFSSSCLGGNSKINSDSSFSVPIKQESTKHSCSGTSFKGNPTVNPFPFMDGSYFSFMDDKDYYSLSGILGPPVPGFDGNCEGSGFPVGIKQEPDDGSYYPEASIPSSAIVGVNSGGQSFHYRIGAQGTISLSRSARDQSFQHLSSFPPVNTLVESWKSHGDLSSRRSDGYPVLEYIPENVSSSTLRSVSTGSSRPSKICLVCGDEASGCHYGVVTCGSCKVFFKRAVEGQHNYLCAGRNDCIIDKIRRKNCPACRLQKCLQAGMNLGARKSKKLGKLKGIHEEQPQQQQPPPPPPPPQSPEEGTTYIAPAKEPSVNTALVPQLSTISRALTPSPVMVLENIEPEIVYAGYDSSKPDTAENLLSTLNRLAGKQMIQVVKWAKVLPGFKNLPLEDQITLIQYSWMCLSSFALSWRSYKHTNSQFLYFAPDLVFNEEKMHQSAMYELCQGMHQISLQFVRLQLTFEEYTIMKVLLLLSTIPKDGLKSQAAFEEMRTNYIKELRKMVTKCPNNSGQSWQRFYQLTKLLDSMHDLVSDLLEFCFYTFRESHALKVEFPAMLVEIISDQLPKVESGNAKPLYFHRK
# [4] = Batch production: Av drug content per vial (RGA40/1); assay type: physicochemical; conditions: batch after freeze drying and gamma sterilization; specification 20.0 ± 2.0 mg
# [5] = Particle sizing by laser light scattering; assay type: physicochemical; conditions: as received powder
# [6] = Batch production: pH (RGA40/3); assay type: physicochemical; conditions: specification 6.0-8.0
# glucocorticoid receptor [7] = molecular target: T2, glucocorticoid receptor (Homo sapiens, UniProt P04150); test: Glucocorticoid receptor activity (GR potency) of corticosterones; conditions: relative potency, hydrocortisone (cortisol) = 1
# T2 sequence (P04150 1-777): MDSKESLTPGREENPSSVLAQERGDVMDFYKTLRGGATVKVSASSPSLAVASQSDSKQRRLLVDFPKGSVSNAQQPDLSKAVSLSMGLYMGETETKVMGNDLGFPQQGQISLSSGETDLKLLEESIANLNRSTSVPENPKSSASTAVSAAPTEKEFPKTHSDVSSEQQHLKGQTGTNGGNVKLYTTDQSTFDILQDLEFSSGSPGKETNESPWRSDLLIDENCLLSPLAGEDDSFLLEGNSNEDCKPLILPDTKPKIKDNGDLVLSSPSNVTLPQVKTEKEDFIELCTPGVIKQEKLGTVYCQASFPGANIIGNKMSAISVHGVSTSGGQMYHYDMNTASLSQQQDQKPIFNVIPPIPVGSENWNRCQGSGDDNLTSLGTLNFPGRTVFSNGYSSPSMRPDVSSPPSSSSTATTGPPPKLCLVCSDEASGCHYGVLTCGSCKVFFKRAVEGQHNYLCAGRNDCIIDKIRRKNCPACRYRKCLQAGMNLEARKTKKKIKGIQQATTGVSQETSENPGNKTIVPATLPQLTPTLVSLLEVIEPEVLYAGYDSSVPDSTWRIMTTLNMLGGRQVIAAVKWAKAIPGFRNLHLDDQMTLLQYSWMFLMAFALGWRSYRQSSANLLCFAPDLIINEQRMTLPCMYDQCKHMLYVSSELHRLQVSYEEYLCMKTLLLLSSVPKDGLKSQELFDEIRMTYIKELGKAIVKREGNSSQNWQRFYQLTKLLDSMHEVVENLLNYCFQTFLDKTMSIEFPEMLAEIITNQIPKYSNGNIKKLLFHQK
# [8] = Batch production: particle size (RGA40/2); assay type: physicochemical
# [9] = Stability of drug aqueous solutions under gamma irradiation; assay type: physicochemical; conditions: saturated aqueous solution, ~25 kGy at ambient temperature
# Method: Preferably, the study materials are sterile, at least to a large degree for preclinical studies. In the absence of a facility for complete aseptic manufacture, in order to sterilize the suspensions there are two possible approaches foreseen—autoclaving the final suspensions in ‘vial’, or gamma sterilization. Consequently, in order to initially test the resistance of the drug to degradation in the ‘wet’ environment, drug in saturated solutions were prepared as for the storage stability studies above and subjected to autoclave conditions (121° C./30 min) or gamma irradiation (˜25 kGy at ambient temperature).
# Gamma irradiation was conducted at a firm in Melbourne (Steritech; 160 South Gippsland Hwy, Dandenong Sth) and QC certificates provided verifying dose of gamma irradiation received. The samples were exposed to 25 kGy radiation, which severely discoloured the vials, in long term this method may be very suitable when an appropriate glass container, resistant to gamma rays, is used for sample preparation.
# rat model of dry AMD = conditions: compared with TA; Provis et al.; cited from earlier work
# [10] = test system: New Zealand albino rabbit eyes; conditions: in vivo
# Method: (§1) All animals were examined before and after injection using the indirect ophthalmoscope and slit-lamp biomicroscopy. Electroretinography (ERG) was performed on all animals before intravitreal injection and two weeks after injection. The animals were re-examined at this time by indirect ophthalmoscopy and slit-lamp biomicroscopy and were euthanized. The eyes were enucleated and examined with light microscopy.
# (§2) Surgeries were performed on the eyes of 25 New Zealand white rabbits. […] The control eyes received 0.1 ml of sterile BSS. All animals were examined before and after injection using indirect ophthalmoscope and slit-lamp biomicroscopy. Electroretinography (ERG) was performed on all animals prior to intravitreal injection and two weeks after injection. The animals were re-examined at this time by indirect ophthalmoscope and slit-lamp biomicroscopy and were euthanized. Their eyes were enucleated and examined with light microscopy.
# [11] = molecular target: T1, mineralocorticoid receptor; conditions: relative to cortisol; cited from earlier work
# [12] = test system: New Zealand albino rabbit eyes; conditions: cited from earlier work; for ERG in the other groups / other eyes: intravitreal 400 μg, 1 mg, 2 mg/0.1 ml and remaining eyes; for time by which all aggregates disappeared: intravitreal
# glucocorticoid receptor [13] = molecular target: T2, glucocorticoid receptor; conditions: relative to cortisol; cited from earlier work
# [14] = test system: New Zealand albino rabbit eyes; test: Intravitreal toxicology of fludrocortisone acetate in rabbits; conditions: every 4 weeks; based on difference in vitreous volume between man and rabbit
# Method: as §1, §2
smiles,measurement,setting,value
"CC(=O)OCC(=O)[C@H]1CC[C@H]2[C@@H]3CCC4=CC(=O)CC[C@]4(C)[C@H]3CC[C@]12C [DCSA, deoxycorticosterone acetate]",aqueous solubility relative to the other compounds,physchem,very low
same,plateau concentration in solution,physchem; 48 h,around 2 mg/mL
same,solubility,"physchem; aqueous with cosolvent or surfactant or cyclodextrin, thermodynamic from solid",> 6000 µg/mL
same,stability of dry powder to gamma sterilization (drug content vs non-irradiated control),[1],slight reduction in drug content
same,stability of aqueous solution to autoclave conditions,[2],completely degraded to DCS
same,MR potency,[3],20
same,Av Drug Content per vial,[4],Av Drug RGA40/1 20.0 ± 2.0 mg 16 ± 0.9 2 Nov. 2006 Failed•
same,"D(v, 0.5)",[5],52 microns
same,"D(v, 0.9)",[5],226 microns
same,pH,[6],pH RGA40/3 6.0-8.0 7.0 3 Nov. 2006 Passed
same,GR potency,glucocorticoid receptor [7],0
same,Particle Size D(0.5),[8]; specification <20,Particle RGA40/2 D(0.5) = <20 8.25 3 Nov. 2006 Passed
same,Particle Size D(0.9),[8]; specification <30,Size D(0.9) = <30 26.77
same,stability of aqueous solution to gamma irradiation,[9],completely degraded
"CC(=O)OCC(=O)[C@@]1(O)CC[C@H]2[C@@H]3CCC4=CC(=O)CC[C@]4(C)[C@@]3(F)[C@@H](O)C[C@@]21C [Fludrocortisone acetate, 9-α-Fiuoro-11β. 17α, 21-trihydroxy-4-pregnene-3, 20 dione acetate]","preventing cell death, macrophage recruitment, preserving a- and b-wave ERG amplitude",rat model of dry AMD,superior to TA
same,tolerability in a panel of animal toxicology studies,[10],well-tolerated
same,"mineralocorticoid effect, times higher than cortisol",[11],250 times
same,MR potency,[3],200
same,histological examination of retinal sections (light microscopy),[12]; 400 μg to 4 mg/0.1 ml,no evidence of toxicity or vacuolization except for one eye in the 4 mg group
same,IOP,[12]; all groups,normal
same,ERG in the other groups / other eyes,[12]; two weeks after injection,normal ERG
same,ERG in the other groups / other eyes,"[12]; two weeks after injection, listed as FCA",no other problems of reductions in ERG
same,eyes with intravitreal haemorrhage and reduced ERG,"[12]; intravitreal 4 mg/0.1 ml, 25 normal rabbits",Two
same,eyes with decreases in ERG,"[12]; intravitreal 4 mg/0.1 ml, two weeks after injection",one
same,time by which all aggregates disappeared,[12]; 2-mg group,22 ± 8 days
same,time by which all aggregates disappeared,[12]; 4-mg group,33 ± 7 days
same,"inflammation in anterior or posterior segment (slit lamp biomicroscopy, indirect ophthalmoscopy)",[12]; up to 40 days of observations,did not show any evidence of significant inflammation
same,"glucocorticoid activity, times higher than cortisol",glucocorticoid receptor [13],ten
same,human equivalent dose,[14],67 mg/eye
